# Source: patent EP0973746B1, “SUBSTITUTED 3-CYANO QUINOLINES” (Wyeth Holdings Corporation, priority 1997, dated 1998)
# Like-named read-outs stand apart in the source and are kept apart here.
# How the values were obtained:
# [1] = tested on: A549; assay: Inhibition of cancer cell growth as measured by cell number, A549; assay type: cell-based; details: Homo sapiens, read-out: IC50 A549
# [2] = tested on: PC3; assay: Inhibition of cancer cell growth as measured by cell number, PC3; assay type: cell-based; details: Homo sapiens, read-out: IC50 PC3
# [3] = tested on: CACO2; assay: Inhibition of cancer cell growth as measured by cell number, CACO2; assay type: cell-based; details: Homo sapiens, read-out: IC50 CACO2
# [4] = tested on: B7474; assay: Inhibition of cancer cell growth as measured by cell number, B7474; assay type: cell-based; details: Homo sapiens, read-out: IC50 B7474
# [5] = tested on: A431; assay: Inhibition of cell growth by incorporation of [3H]-thymidine, A431; assay type: cell-based, human; details: Homo sapiens
# Description: (§1) Representative compounds of this invention were evaluated for their ability to inhibit the growth of the cell lines described below in vitro. The inhibition is quantitated by measuring the decrease in the incorporation of radio-labeled thymidine when the cells are grown in the presence of the inhibitor. […] Cells were routinely grown in a humidified incubator in 5% CO2 in air.
# (§2) Cells were seeded at 10,000 cells/well in 96 well plates in complete media and allowed to grow to log phase. At this stage the complete media was replaced with media containing 0.5% FBS (for cells growing in 10% FBS) or media lacking epidermal growth factor (EGF) (for cells growing in serum free media). […] Media with test compound was then removed and complete media was added back. The cells were allowed to grow for 18 hours. This is followed by incubation in [^3H]thymidine (1mCi/ml in serum/EGF media) for 4 hours. Cells were lysed in 0.5 M NaOH for at least 30 min at 37°C and radioactivity analyzed.
# (§3) The % inhibition of the compound evaluated was determined for at least three different concentrations and the IC50 value evaluated from the dose response curve. […] CPM(control) is in units of counts per minute and is a number expressing the amount of [^3H]thymidine incorporated onto the DNA when cells are grown in the absence of test compound as measured by liquid scintillation counting.
# [6] = tested on: HCT15; assay: Inhibition of cancer cell growth as measured by cell number, HCT15; assay type: cell-based; details: Homo sapiens, read-out: IC50 HCT15
# [7] = target: epidermal growth factor receptor kinase (Homo sapiens, UniProt P00533); assay: biochemical
# [8] = tested on: LX1; assay: Inhibition of cancer cell growth as measured by cell number, LX1; assay type: cell-based; details: Homo sapiens, read-out: IC50 LX1
# [9] = tested on: CCRF-CFM; assay: Inhibition of cancer cell growth as measured by cell number, CCRF-CFM; assay type: cell-based; details: Homo sapiens, read-out: IC50 CCRF-CFM
# [10] = tested on: A431; assay: Inhibition of cancer cell growth as measured by cell number, A431; assay type: cell-based, human; details: Homo sapiens, A-431, 48 h, Table 6;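 further: human A431 line, picked because it overexpresses epidermal growth factor receptor (EGFR)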
# Excerpt: (§4) The cell lines were chosen since they overexpressed epidermal growth factor receptor (EGFR) (i.e. A431) or HER2/neu (SKBR3), or had little to no expression of the these receptors (SW620, LOX, MCF7).
# [11] = tested on: SW948; assay: Inhibition of cancer cell growth as measured by cell number, SW948; assay type: cell-based; details: Homo sapiens, read-out: IC50 SW948
# [12] = tested on: MIP; assay: Inhibition of cancer cell growth as measured by cell number, MIP; assay type: cell-based; details: Homo sapiens; cell number, Sulforhodamine B, 48 hours exposure; Table 4; read-out: IC50 MIP
# [13] = tested on: HTB161; assay: Inhibition of cancer cell growth as measured by cell number, HTB161; assay type: cell-based; details: Homo sapiens, read-out: IC50 HTB161
# [14] = tested on: LOX; assay: Inhibition of cancer cell growth as measured by cell number, LOX; assay type: cell-based, human; details: Homo sapiens, LOX, 48 h, Table 6;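 further: LOX cells served as a line with low or absent EGFR and HER2/neu expression, in contrast to receptor-overexpressing lines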
# Excerpt: as §4
# [15] = tested on: SW620; assay: Inhibition of cancer cell growth as measured by cell number, SW620; assay type: cell-based, human; details: Homo sapiens, SW-620, 48 h, Table 4;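 further: SW620 was included as a cell line with little or no EGFR or HER2/neu expression, in contrast to receptor-overexpressing lines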
# Excerpt: as §4
# [16] = tested on: T47D; assay: Inhibition of cancer cell growth as measured by cell number, T47D; assay type: cell-based; details: Homo sapiens
# [17] = tested on: A27805; assay: Inhibition of cancer cell growth as measured by cell number, A27805; assay type: cell-based; details: Homo sapiens, read-out: IC50 A27805
# [18] = tested on: HL60; assay: Inhibition of cancer cell growth as measured by cell number, HL60; assay type: cell-based; details: Homo sapiens, read-out: IC50 HL60
# [19] = tested on: CCL228; assay: Inhibition of cancer cell growth as measured by cell number, CCL228; assay type: cell-based; details: Homo sapiens, read-out: IC50 CCL228
# [20] = tested on: LS174T; assay: Inhibition of cancer cell growth as measured by cell number, LS174T; assay type: cell-based; details: Homo sapiens
# [21] = tested on: CX1; assay: Inhibition of cancer cell growth as measured by cell number, CX1; assay type: cell-based; details: Homo sapiens, read-out: IC50 CX1
# [22] = tested on: A2780DDP; assay: Inhibition of cancer cell growth as measured by cell number, A2780DDP; assay type: cell-based; details: Homo sapiens, read-out: IC50 A2780DDP
# [23] = tested on: NHEK; assay: Inhibition of cell growth by incorporation of [3H]-thymidine, NHEK; assay type: cell-based, human; details: Homo sapiens, [3H]-thymidine incorporation, read-out: IC50 NHEK
# Description: as §1, §2, §3
# [24] = tested on: DU145; assay: Inhibition of cancer cell growth as measured by cell number, DU145; assay type: cell-based; details: Homo sapiens, read-out: IC50 DU145
# [25] = tested on: NEC; assay: Inhibition of cancer cell growth as measured by cell number, NEC; assay type: cell-based; details: Homo sapiens, 48 h, read-out: IC50 NEC
# [26] = tested on: LNCAP; assay: Inhibition of cancer cell growth as measured by cell number, LNCAP; assay type: cell-based; details: Homo sapiens, 48 h, read-out: IC50 LNCAP
# [27] = target: recombinant human MEK 1 (MAPKK) and recombinant human ERK2 (MAPK); assay: Mitogen Activated Protein Kinase (MAPK) assay, two component coupled MEK 1 / ERK2; assay type: biochemical; details: separate entries for the same compound = evaluated more than one time;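 further: MEK 1-activated ERK2 phosphorylates MBP or Myc peptide with 33P-ATP, filter capture and scintillation counting, inhibitor preincubated with ERK2 30 min at 0 °C, inhibition relative to uninhibited control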
# [28] = tested on: MCF7; assay: Inhibition of cancer cell growth as measured by cell number, MCF7; assay type: cell-based, human; details: Homo sapiens, MCF7, 48 h, read-out: IC50 MCF7, cell number, Sulforhodamine B, 48 hours exposure; Table 5;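 further: MCF7 was included as a line with little or no EGFR or HER2/neu expression, in contrast to the receptor-overexpressing lines of the panel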
# Excerpt: as §4
# [29] = tested on: COLO205; assay: Inhibition of cancer cell growth as measured by cell number, COLO205; assay type: cell-based; details: Homo sapiens, COLO 205, 48 h, read-out: IC50 COLO205
# [30] = tested on: SKBR3; assay: Inhibition of cancer cell growth as measured by cell number, SKBR3; assay type: cell-based, human; details: Homo sapiens, SK-BR-3, 48 h, read-out: IC50 SKBR3, cell number, Sulforhodamine B, 48 hours exposure; Table 7;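 further: SK-BR-3 cells were selected as a line overexpressing HER2/neu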
# Excerpt: as §4
# [31] = A-431, [3H]-thymidine incorporation, A431, read-out: IC50 A431
# [32] = cell number, Sulforhodamine B, 48 hours exposure, Table 4
# Chain of epidermal growth factor receptor kinase (P00533 25-1210): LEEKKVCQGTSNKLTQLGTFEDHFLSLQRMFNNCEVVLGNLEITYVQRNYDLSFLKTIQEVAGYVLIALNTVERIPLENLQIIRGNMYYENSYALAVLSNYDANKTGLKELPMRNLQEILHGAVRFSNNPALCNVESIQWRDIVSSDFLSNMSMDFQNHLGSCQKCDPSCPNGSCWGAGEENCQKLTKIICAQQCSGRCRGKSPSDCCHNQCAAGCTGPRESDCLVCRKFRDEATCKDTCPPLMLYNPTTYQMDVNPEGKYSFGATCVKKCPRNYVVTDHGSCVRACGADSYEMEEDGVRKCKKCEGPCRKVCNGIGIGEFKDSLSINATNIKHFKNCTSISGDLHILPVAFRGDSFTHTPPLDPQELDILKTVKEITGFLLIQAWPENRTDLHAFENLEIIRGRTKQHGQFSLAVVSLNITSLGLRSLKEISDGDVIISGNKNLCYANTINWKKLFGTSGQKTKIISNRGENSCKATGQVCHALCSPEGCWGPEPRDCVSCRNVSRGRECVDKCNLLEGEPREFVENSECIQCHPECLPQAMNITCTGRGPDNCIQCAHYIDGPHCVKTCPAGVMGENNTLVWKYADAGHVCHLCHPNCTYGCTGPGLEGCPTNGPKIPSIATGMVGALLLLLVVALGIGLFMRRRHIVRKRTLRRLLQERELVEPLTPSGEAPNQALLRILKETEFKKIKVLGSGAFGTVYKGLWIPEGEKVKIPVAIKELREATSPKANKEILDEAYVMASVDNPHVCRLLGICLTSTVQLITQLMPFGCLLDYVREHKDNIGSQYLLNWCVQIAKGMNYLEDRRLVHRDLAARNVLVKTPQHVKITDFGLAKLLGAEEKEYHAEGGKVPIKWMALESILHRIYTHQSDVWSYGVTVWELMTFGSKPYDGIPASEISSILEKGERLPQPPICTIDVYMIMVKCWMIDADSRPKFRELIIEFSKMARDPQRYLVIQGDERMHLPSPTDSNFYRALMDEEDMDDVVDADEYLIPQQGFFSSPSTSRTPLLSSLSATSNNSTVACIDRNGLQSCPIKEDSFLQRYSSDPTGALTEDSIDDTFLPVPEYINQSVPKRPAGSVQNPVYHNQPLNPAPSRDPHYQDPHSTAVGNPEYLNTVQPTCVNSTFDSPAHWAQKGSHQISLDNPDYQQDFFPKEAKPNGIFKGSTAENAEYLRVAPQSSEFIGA
smiles,measurement,setting,value
"CC(=O)Nc1ccc2ncc(C#N)c(Nc3cccc(Br)c3)c2c1 [Example 16, N-[4-[(3-Bromophenyl)amino]-3-cyano-6-quinolinyl] acetamide]",IC50,"[1]; A549, cell number, Sulforhodamine B, 48 hours exposure, Table 6",0.214 µg/mL
same,IC50,"[2]; PC-3, cell number, Sulforhodamine B, 48 hours exposure, Table 7",3.04 µg/mL
same,IC50,"[3]; Caco-2, cell number, Sulforhodamine B, 48 hours exposure, Table 5",0.71 µg/mL
same,IC50,"[4]; cell number, Sulforhodamine B, 48 hours exposure, Table 6",0.899 µg/mL
same,IC50,[5]; [31],1800 nM
same,IC50,"[6]; HCT-15, cell number, Sulforhodamine B, 48 hours exposure, Table 5",0.641 µg/mL
same,IC50,[7],1.5 nM
same,IC50,"[8]; LX-1, cell number, Sulforhodamine B, 48 hours exposure, Table 6",0.644 µg/mL
same,IC50,"[9]; cell number, Sulforhodamine B, 48 hours exposure, Table 7",0.729 µg/mL
same,IC50,"[10]; cell number, Sulforhodamine B, 48 hours exposure, read-out: IC50 A431",0.766 µg/mL
same,IC50,"[11]; SW948, cell number, Sulforhodamine B, 48 hours exposure, Table 5",0.928 µg/mL
same,IC50,[12],0.534 µg/mL
same,IC50,[13]; [32],0.667 µg/mL
same,IC50,"[14]; cell number, Sulforhodamine B, 48 hours exposure, read-out: IC50 LOX",0.316 µg/mL
same,IC50,"[15]; cell number, Sulforhodamine B, 48 hours exposure, read-out: IC50 SW620",> 100 µg/mL
same,IC50,"[16]; cell number, Sulforhodamine B, 48 hours exposure, Table 6, read-out: IC50 T47D",6.55 µg/mL
same,IC50,[17]; [32],0.602 µg/mL
same,IC50,"[18]; HL-60, cell number, Sulforhodamine B, 48 hours exposure, Table 7",0.696 µg/mL
same,IC50,"[19]; cell number, Sulforhodamine B, 48 hours exposure, Table 5",4.38 µg/mL
same,IC50,"[20]; cell number, Sulforhodamine B, 48 hours exposure, Table 5, read-out: IC50 LS174T",0.434 µg/mL
same,IC50,"[21]; CX-1, cell number, Sulforhodamine B, 48 hours exposure, Table 4",0.978 µg/mL
same,IC50,[22]; [32],0.596 µg/mL
same,IC50,[23],60 nM
same,IC50,"[24]; DU-145, cell number, Sulforhodamine B, 48 hours exposure, Table 7",0.113 µg/mL
"N#Cc1cnc2ccc([N+](=O)[O-])cc2c1Nc1ccc(Br)c(Br)c1 [Example 20, 4-[(3,4-Dibromophenyl)amino]-6-nitro-3-quinolinecarbonitrile]",IC50,[5]; [31],35000 nM
same,IC50,[23],650 nM
"COc1cc2ncc(C#N)c(Nc3cccc(C#N)c3)c2cc1OC [Example 45, 4-[(3-Cyanophenyl)amino]-6,7-dimethoxy-3-quinolinecarbonitrile]",IC50,"[1]; A549, 48 h",100 µg/mL
same,IC50,"[2]; PC-3, 48 h",88.9 µg/mL
same,IC50,[25],72.1 µg/mL
same,IC50,"[3]; Caco-2, 48 h",0.911 µg/mL
same,IC50,[4]; 48 h,86.8 µg/mL
same,IC50,"[5]; A-431, read-out: IC50 A431",150 nM
same,IC50,"[6]; HCT-15, 48 h",79.7 µg/mL
same,IC50,[26],57.8 µg/mL
same,IC50,[7],1670 nM
same,IC50,"[8]; LX-1, 48 h",100 µg/mL
same,IC50,[27],> 100000 nM
same,IC50,[9]; 48 h,> 100 µg/mL
same,IC50,[28],57.8 µg/mL
same,IC50,"[10]; read-out: IC50 A431, cell number, Sulforhodamine B, 48 hours exposure",2.61 µg/mL
same,IC50,"[11]; SW948, 48 h",> 100 µg/mL
same,IC50,[12],> 100 µg/mL
same,IC50,[13]; 48 h,4.21 µg/mL
same,IC50,"[14]; read-out: IC50 LOX, cell number, Sulforhodamine B, 48 hours exposure",9.06 µg/mL
same,IC50,"[15]; read-out: IC50 SW620, cell number, Sulforhodamine B, 48 hours exposure",> 100 µg/mL
same,IC50,"[16]; 48 h, read-out: IC50 T47D",30 µg/mL
same,IC50,[17]; 48 h,8.66 µg/mL
same,IC50,"[18]; HL-60, 48 h",> 100 µg/mL
same,IC50,[19]; 48 h,> 100 µg/mL
same,IC50,"[20]; 48 h, read-out: IC50 LS174T",87.1 µg/mL
same,IC50,"[21]; CX-1, 48 h",89.7 µg/mL
same,IC50,[22]; 48 h,39.3 µg/mL
same,IC50,[29],> 100 µg/mL
same,IC50,"[24]; DU-145, 48 h",8.94 µg/mL
same,IC50,[30],60.5 µg/mL
